Laboratory results as given in article PMC5874699, “Antimicrobial and Antibiofilm Activity of UP-5, an Ultrashort Antimicrobial Peptide Designed Using Only Arginine and Biphenylalanine” (Pharmaceuticals, 2018).

Assays:
S. aureus (ATCC 43300) [1] = type: cell-based, Staphylococcus aureus; settings: S. aureus ATCC 43300, antibiotic alone, triplicate
Description: (§1) All bacterial susceptibility, biofilm, and synergistic assays of peptides, antibiotics, and peptides-antibiotics combinations used bacterial strains obtained from the American Type Tissue Culture Collection (ATCC, Manassas, VA, USA) that states the mechanism of resistance for each strain according to ATCC number. Gram-positive bacteria were represented by five strains, the wild type strain Staphylococcus aureus (ATCC 29213) and methicillin-resistant S. aureus (MRSA) (ATCC 33591) in addition to clinically isolated strains S. aureus (ATCC BAA-41& 43300) and Enterococcus faecalis (ATCC BAA-2316). The Gram-negative bacteria strains were represented by wild type strains of Escherichia coli (ATCC 25922 & 35218) and Pseudomonas aeruginosa (ATCC 27853) as well as the clinically isolated multidrug-resistant strain P. aeruginosa (ATCC BAA-2114). The bacteria were cultured onto Muller Hinton Agar (Scharlab, S.L, Barcelona, Spain). Mueller Hinton Broth (Oxoid Ltd., Basingstoke, UK) was used to prepare all bacterial suspensions and to dissolve the peptides and the antibiotics. The assay was performed in sterile 96-well polypropylene microtiter plates.
(§2) All bacterial susceptibility assays were conducted according to the microbroth dilution method outlined by the Clinical and Laboratory Standards Institute (CLSI) guidelines.
(§3) Briefly, pre-sterilized MHB was used as a growth medium for organisms obtained from stock media with glycerol. Bacterial cells were grown overnight in MHB and diluted to 10^6 CFU/mL in the same medium prior to use. For peptide, serial concentrations in the range of 0.5–100 μM were prepared. Then, 50 μL of each peptide concentration and 50 µL of diluted bacterial suspension were added to each well of a 96-well microtiter plate. Peptide solutions were prepared by dissolving the peptide in sterile MHB. Then, the plates were incubated overnight in a humidified atmosphere, and at 37 °C. Bacterial growth was determined by measuring the optical density (OD) at λ = 600 nm using an ELISA plate reader (Epoch, BioTek, Winooski, VT, USA) and the minimum inhibitory concentration (MIC) was determined.
(§4) As described in the previous section, the MIC and MBC values of antibiotics employed in this study were determined against subjected bacterial strains via preparing different concentrations of each antibiotic.

S. aureus (ATCC BAA-41) [2] = type: cell-based, Staphylococcus aureus; settings: S. aureus ATCC BAA-41, antibiotic alone, triplicate
Description: as §1, §2, §3, §4

[3] = tested on: P. aeruginosa (ATCC BAA-2114); assay: Broth microdilution checkerboard, UP-5 with antibiotics; type: cell-based, Pseudomonas aeruginosa
Description: as §1
(§5) According to the broth microdilution checkerboard technique, the MIC and MBC values of peptide-antibiotics combinations against wild type and multidrug resistant bacterial strains were determined. Serial concentrations of peptide and each antibiotic were prepared in the range of 0.005–100 μM. In each well of a 96-well microtiter plate, 25 μL of each peptide concentration were added to 25 μL of each antibiotic concentration which is followed by adding 50 μL of diluted bacterial suspension (10^6 CFU/mL) to each well. The prepared concentrations of peptide and each antibiotic were arranged into rows and columns, respectively, in a 96-well microtiter plate according the checkerboard technique. Then as described previously (see Section 2.4.1), the procedure was followed. All MIC and MBC determinations of all assays were made in triplicate.
(§6) The fractional inhibitory concentration (FIC) is defined as the inhibitory concentration of the antimicrobial combination divided by that of the single antimicrobial component. To calculate FIC index for peptide-antibiotic combinations, the following equation was used:(1) FIC index=MIC of drug X in combination/MIC of drug X alone+MIC of drug Y in combination/MIC of drug Y alone
(§7) The FIC indices were interpreted as follows: ≤0.5: synergistic activity, 0.5–1: additive activity, 1–4 indifferent, >4: antagonism. Interpretation and assessment of the FIC indices were performed according to the broth microdilution checkerboard technique.

[4] = tested on: P. aeruginosa (ATCC BAA-2114); type: cell-based, Pseudomonas aeruginosa; settings: P. auroginosa ATCC BAA-2114, antibiotic alone, triplicate
Description: as §1, §2, §3, §4

[5] = tested on: Staphylococcus aureus (ATCC 29213); type: cell-based; settings: S. aureus ATCC 29213, antibiotic alone, triplicate
Description: as §1, §2, §3, §4

[6] = tested on: methicillin-resistant S. aureus (MRSA) (ATCC 33591); assay: MIC/MBC, microbroth dilution (CLSI); type: cell-based, Staphylococcus aureus; settings: S. aureus ATCC 33591, antibiotic alone, triplicate
Description: as §1, §2, §3, §4

S. aureus (ATCC 33591) = assay: Broth microdilution checkerboard, UP-5 with antibiotics; type: cell-based, Staphylococcus aureus; settings: for Antibiotics Reduction in MIC (%): antibiotic MIC in combination with UP-5 compared to MIC alone
Description: as §1, §5, §6, §7

S. aureus (ATCC 43300) [7] = assay: as above; type: cell-based, Staphylococcus aureus
Description: as §1, §5, §6, §7

S. aureus (ATCC BAA-41) [8] = assay: as above; type: cell-based, Staphylococcus aureus
Description: as §1, §5, §6, §7

S. aureus (ATCC 29213) = assay: as above; type: cell-based, Staphylococcus aureus; settings: for Antibiotics Reduction in MIC (%): antibiotic MIC in combination with UP-5 compared to MIC alone
Description: as §1, §5, §6, §7

Antibiotics MIC Alone (S. aureus (ATCC 43300) [1]; microbroth dilution): 20 µM | Antibiotics MIC Alone (S. aureus (ATCC BAA-41) [2]; microbroth dilution): 10 µM | Antibiotics Reduction in MIC (%) ([3]; P. auroginosa ATCC BAA-2114, antibiotic MIC in combination with UP-5 compared to MIC alone): 58.3% | Antibiotics MIC in Combination ([3]; P. auroginosa ATCC BAA-2114, antibiotic in combination with UP-5, checkerboard, triplicate): 5 µM | Antibiotics MIC Alone ([4]; microbroth dilution): 12 µM | Antibiotics MIC Alone ([5]; microbroth dilution): 0.5 µM | Antibiotics MIC Alone ([6]; microbroth dilution): 10 µM | Antibiotics Reduction in MIC (%) (S. aureus (ATCC 33591); S. aureus ATCC 33591): 87.5% | Antibiotics Reduction in MIC (%) (S. aureus (ATCC 33591); S. aureus ATCC 33591, listed as levofloxacin): 90% | Antibiotics MIC in Combination (S. aureus (ATCC 33591); S. aureus ATCC 33591, antibiotic in combination with UP-5, checkerboard, triplicate): 1.25 µM | Antibiotics MIC in Combination (S. aureus (ATCC 43300) [7]; S. aureus ATCC 43300, antibiotic in combination with UP-5, checkerboard, triplicate): 5 µM | Antibiotics Reduction in MIC (%) (S. aureus (ATCC BAA-41) [8]; S. aureus ATCC BAA-41, antibiotic MIC in combination with UP-5 compared to MIC alone): <50% | Antibiotics MIC in Combination (S. aureus (ATCC BAA-41) [8]; S. aureus ATCC BAA-41, antibiotic in combination with UP-5, checkerboard, triplicate): 10 µM | Antibiotics Reduction in MIC (%) (S. aureus (ATCC 29213); S. aureus ATCC 29213): 90% | Antibiotics Reduction in MIC (%) (S. aureus (ATCC 29213); S. aureus ATCC 29213, listed as levofloxacin): 87.5% | Antibiotics MIC in Combination (S. aureus (ATCC 29213); S. aureus ATCC 29213, antibiotic in combination with UP-5, checkerboard, triplicate): 0.05 µM
SMILES: C[C@H]1COc2c(N3CCN(C)CC3)c(F)cc3c(=O)c(C(=O)O)cn1c23 [Levofloxacin, levofloxacin]
Antibiotics MBC Alone (S. aureus (ATCC 43300) [1]; 99.9% killing): 20 µM | Antibiotics MBC Alone (S. aureus (ATCC BAA-41) [2]; 99.9% killing): 10 µM | Effect of the combination according to FIC value ([3]; P. aeruginosa (ATCC 2114 as printed), antibiotic-UP-5 combination): additive (0.5–1: additive activity) | FIC Index ([3]; P. auroginosa ATCC BAA-2114, antibiotic-UP-5 combination, checkerboard): 0.78 | Antibiotics MBC Alone ([4]; 99.9% killing): 12 µM | Antibiotics MBC Alone ([5]; 99.9% killing): 0.5 µM | Antibiotics MBC Alone ([6]; 99.9% killing): 10 µM | Effect of the combination according to FIC value (S. aureus (ATCC 33591); S. aureus (ATCC 33591), antibiotic-UP-5 combination): synergistic (≤0.5: synergistic activity) | FIC Index (S. aureus (ATCC 33591); S. aureus ATCC 33591, antibiotic-UP-5 combination, checkerboard): 0.13 | Effect of the combination according to FIC value (S. aureus (ATCC 43300) [7]; S. aureus (ATCC 43300), antibiotic-UP-5 combination): synergistic (≤0.5: synergistic activity) | FIC Index (S. aureus (ATCC 43300) [7]; S. aureus ATCC 43300, antibiotic-UP-5 combination, checkerboard): 0.25 | Effect of the combination according to FIC value (S. aureus (ATCC BAA-41) [8]; S. aureus (ATCC BAA-41), antibiotic-UP-5 combination): indifferent (1–4 indifferent) | FIC Index (S. aureus (ATCC BAA-41) [8]; S. aureus ATCC BAA-41, antibiotic-UP-5 combination, checkerboard): 2 | Effect of the combination according to FIC value (S. aureus (ATCC 29213); S. aureus (ATCC 29213), antibiotic-UP-5 combination): synergistic (≤0.5: synergistic activity) | FIC Index (S. aureus (ATCC 29213); S. aureus ATCC 29213, antibiotic-UP-5 combination, checkerboard): 0.11
